# Measured values published in patent US20180369342A1, “CARDIAC METABOLIC EFFECT OF LANTUS” (Sanofi-Aventis Deutschland GmbH, priority 2015, published 2018).
# “Also recorded” adds a separate entry of the source.
# Experiments:
# C57bl/6 mouse hearts = test: Isolated working heart perfusion, cardiac energy metabolism (acute treatment), C57bl/6; settings: for % ATP from glucose oxidation / % ATP from palmitate oxidation / cardiac efficiency: C57bl/6 mouse hearts; for glucose oxidation / palmitate oxidation: isolated working C57bl/6 mouse hearts, 10 wk old
# Description: (§1) The effect of three different types of insulin, human insulin, insulin degludec, and the M1 metabolite of insulin glargine, on cardiac metabolism was determined in adult, 10 weeks old mice using either healthy C57Bl6 wildtype mice or Type-2 diabetes db/db mice. Mice were fed a standard chow diet and kept in 12 hr light: 12 hr dark cycle. To test their acute effect energy metabolism, hearts were removed from fully anesthetized mice, and perfused as isolated working hearts with Krebs Henseleit buffer (118.5 mM NaCl, 1.2 mM MgSO4, 25 mM NaHCO3, 4.7 mM KCl, 1.2 mM KH2PO4, 2.5 mM CaCl2) supplemented with 0.8 mM palmitate bound to 3% fatty acid-free bovine serum albumin (BSA), 5 mM glucose, and 0.5 mM lactate. Hearts underwent aerobic perfusion for 72 min with vehicle or increasing amounts of insulin (0, 25, 50, 100 μU/ml), insulin Degludec (0, 100, 300, 1000 μU/ml), or the M1 metabolite of insulin Glargine (0, 25, 50, 100 μU/ml). Each concentration escalation step lasted 18 minutes. At the end of the heart perfusion hearts were immediately snap frozen in liquid N2 and stored at −80° C. See FIG. 1 In order to measure glucose oxidation, glycolysis, palmitate oxidation, and lactate oxidation [U-^14C] glucose, [5-^3H] glucose, [9, 10-^3H] palmitate, and [U-^14C] lactate, respectively, were added to the perfusate as described above in Example 1. Glycolysis and palmitate oxidation rates were determined based on the rates of ^3H2O production. To determine glucose oxidation and lactate oxidation rates ^14CO2 production was assessed.
# db/db mouse hearts = test: Isolated working heart perfusion, cardiac energy metabolism (acute treatment), db/db; settings: for glucose oxidation / palmitate oxidation: isolated working db/db mouse hearts, 10 wk old
# Description: as §1
# db/db mice [1] = test: Chronic treatment of db/db mice: blood glucose and glucose tolerance; type: in vivo, mouse; settings: 18 week old db/db mice; for blood glucose levels: 5 U/kg BW daily, data not shown; for blood glucose tolerance: 150 U/kg BW daily for 4 weeks
# Description: (§2) In a second set 18 week old db/db mice were treated with vehicle, NPH insulin, Degludec, or Lantus daily for 4 weeks (see FIG. 8). 18 wk old db/db mice were specifically used because by this age they have a diastolic dysfunction. The original protocol involved treating the mice with either NPH insulin (5 U/kg BW), Degludec (5 U/kg BW), or Lantus (5 U/kg BW). […] Other groups have reported that a higher dose of insulin is required to control hyperglycemia in db/db mice. The highest dose that had been reported to be safe, was 150 U/kg BW, which was then used for future experiments. Treating the mice with 150 U/kg BW of NPH insulin, Degludec, or Lantus improved blood glucose tolerance much more dramatically (FIG. 9). At the end of the 4 week treatment period, the cardiac energy metabolism and function was assessed via echocardiography. The Vevo 770 high resolution echocardiography imaging system was used to assess in vivo cardiac function was assessed in isoflurane anesthetized mice.
# Akt = test: Western Blot Analysis of cardiac Akt phosphorylation after acute treatment; settings: db/db mouse hearts
# Description: The phosphorylation status of several enzymes involved in insulin signaling were also assessed in the C57bl/6 and db/db mouse hearts treated acutely with insulin, Degludec, or Lantus, via Western Blot Analysis. Frozen heart issue was homogenized for 30 sec in homogenization buffer (50 mM Tris HCl, 10% glycerol, 1 mM EDTA, 0.02% Brij-35, 1 mM DTT, and protease and phosphatase inhibitors (Sigma)). After sitting on ice at least 10 min, tissue homogenates were centrifuged at 10,000×g for 20 min. The supernatant was then stored at −80° C. Protein concentration of supernatant was determined using the Bradford protein assay. After running samples on SDS-polyacrylamide gel electrophoresis, protein was transferred onto nitrocellulose membrane. Primary antibodies included pAkt Ser473 (Cell Signaling 9271), Akt (Cell Signaling 9272), pGSK3α/β Ser21/9 (Cell Signaling 9331), GSK3β (Cell Signaling 9315), pPDH Ser293 (Calbiochem AP1062), and PDH (Cell Signaling 2784). Protein bands were visualized on autoradiography film using enhanced chemiluminescence (Perkin Elmer) and quantified with Image J.
# db/db mice [2] = test: Chronic treatment of db/db mice: in vivo cardiac function by echocardiography; design: species or system mouse; settings: chronic treatment 4 weeks
# Description: The long-term effects of insulin treatment on cardiac function was assessed in two different settings. In acute treatments, measurements were performed in isolated working hearts from either wildtype mice (C57Bl) or mice with a diabetes type-2 phenotype (db/db mice). In a second chronic setting, db/db animals were treated for 4 weeks with daily administration of different high doses of insulins to achieve similar effects on systemic hypergycaemia. At the end of the chronic study, effects on cardiac function was assessed by echocardiography.
# as §2
substance,measurement,setting,value
Degludec,% ATP from glucose oxidation,C57bl/6 mouse hearts,12%
same,% ATP from palmitate oxidation,C57bl/6 mouse hearts,62%
same,glucose oxidation,C57bl/6 mouse hearts,not
same,palmitate oxidation,C57bl/6 mouse hearts,not
same,% ATP from glucose oxidation,db/db mouse hearts; db/db mouse hearts,5%
same,% ATP from palmitate oxidation,db/db mouse hearts; db/db mouse hearts,75%
same,glucose oxidation,db/db mouse hearts,not
same,palmitate oxidation,db/db mouse hearts,not
same,blood glucose levels,db/db mice [1],did not reduce
same,blood glucose tolerance,db/db mice [1],improved
Gly (A21) human insulin [M1-metabolite of insulin glargine],cardiac efficiency,C57bl/6 mouse hearts,improved
same,glucose oxidation,C57bl/6 mouse hearts,able to stimulate
same,palmitate oxidation,C57bl/6 mouse hearts,inhibit
same,cardiac efficiency,db/db mouse hearts; db/db mouse hearts,improved
same,glucose oxidation,db/db mouse hearts,able to stimulate
same,palmitate oxidation,db/db mouse hearts,inhibit
"Gly (A21), Arg (B31), Arg (B32) human insulin [Lantus]",% ATP from glucose oxidation,C57bl/6 mouse hearts,30%
same,% ATP from palmitate oxidation,C57bl/6 mouse hearts,37%
same,cardiac efficiency,C57bl/6 mouse hearts,improves
same,glucose oxidation,C57bl/6 mouse hearts,stimulates
same,palmitate oxidation,C57bl/6 mouse hearts,decreases
same,% ATP from glucose oxidation,db/db mouse hearts; db/db mouse hearts,14%
same,% ATP from palmitate oxidation,db/db mouse hearts; db/db mouse hearts,56%
same,glucose oxidation,db/db mouse hearts,stimulates
same,palmitate oxidation,db/db mouse hearts,decreases
same,pAkt,Akt,significantly increased
same,blood glucose levels,db/db mice [1],did not reduce
same,blood glucose tolerance,db/db mice [1],improved
same,cardiac output,db/db mice [2],significantly increased; also recorded: improved
same,cardiac stroke volume,db/db mice [2],significantly increased; also recorded: improved
same,in vivo cardiac function,db/db mice [2],improved
same,in vivo cardiac function,db/db mice [2]; listed as lantus,improves
NPH insulin: long acting basal insulin,blood glucose levels,db/db mice [1],did not reduce
same,blood glucose tolerance,db/db mice [1],improved
insulin: human insulin,% ATP from glucose oxidation,C57bl/6 mouse hearts,18%
same,% ATP from palmitate oxidation,C57bl/6 mouse hearts,55%
same,% ATP from glucose oxidation,db/db mouse hearts; db/db mouse hearts,13%
same,% ATP from palmitate oxidation,db/db mouse hearts; db/db mouse hearts,53%
